According to patent US20250320204A1 (RIBOSCIENCE LLC, priority 2023, published 2025):

How the values were obtained:
ENPP1 [1] = target: T1, ENPP1 (Homo sapiens, UniProt P22413); experiment: Measurement of 2′3′-cGAMP hydrolysis by ENPP1 (AMP-Glo); assay type: biochemical; settings: 2′3′-cGAMP substrate 100 μM, KM 32 μM; Ki from IC50 by Cheng-Prusoff
T1 sequence (P22413 1-925): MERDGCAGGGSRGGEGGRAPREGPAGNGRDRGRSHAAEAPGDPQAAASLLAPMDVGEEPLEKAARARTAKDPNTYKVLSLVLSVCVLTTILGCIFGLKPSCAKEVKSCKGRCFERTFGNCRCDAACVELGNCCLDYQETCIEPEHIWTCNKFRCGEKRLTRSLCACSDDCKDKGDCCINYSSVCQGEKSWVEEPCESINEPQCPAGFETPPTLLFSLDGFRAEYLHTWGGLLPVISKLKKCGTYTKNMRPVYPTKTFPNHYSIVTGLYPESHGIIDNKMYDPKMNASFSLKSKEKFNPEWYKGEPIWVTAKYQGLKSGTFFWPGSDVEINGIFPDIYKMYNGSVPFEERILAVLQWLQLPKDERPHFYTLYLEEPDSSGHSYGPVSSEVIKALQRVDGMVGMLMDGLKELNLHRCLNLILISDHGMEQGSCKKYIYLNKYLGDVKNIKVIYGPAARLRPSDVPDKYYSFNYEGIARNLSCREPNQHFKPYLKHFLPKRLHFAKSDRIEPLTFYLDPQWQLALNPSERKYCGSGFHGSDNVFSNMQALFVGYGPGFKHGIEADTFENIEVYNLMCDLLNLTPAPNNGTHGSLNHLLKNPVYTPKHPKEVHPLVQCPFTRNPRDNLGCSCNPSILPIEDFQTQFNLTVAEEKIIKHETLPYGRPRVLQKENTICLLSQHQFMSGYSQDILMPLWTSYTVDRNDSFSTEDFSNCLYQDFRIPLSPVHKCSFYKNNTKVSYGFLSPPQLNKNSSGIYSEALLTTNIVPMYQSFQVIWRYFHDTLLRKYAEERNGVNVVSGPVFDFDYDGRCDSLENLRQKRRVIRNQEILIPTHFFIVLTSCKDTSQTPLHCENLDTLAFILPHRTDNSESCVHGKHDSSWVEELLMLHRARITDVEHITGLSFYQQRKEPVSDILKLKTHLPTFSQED
Procedure: Measurement of 2′3′-cGAMP hydrolysis by ENPP1
The AMP-Glo assay kit from Promega (catalog number V5012) was used for measurement of 5′-AMP production.
First, an ENPP1 and test compound incubation was set up in assay buffer (50 mM Tris -HCl, pH8.8, 250 mM NaCl, 0.1 mg/ml BSA) with following conditions: ENPP1 concentration: 1.25 nM; test compound concentration ranging from 137 pM to 100 nM. The incubation was carried out at 25° C. for 10 min.
Second, after the 10-minute incubation of ENPP1 and test compound, prepare on a separate plate, 15 μl of the substrate 2′3′-cGAMP at 200 μM in assay buffer. Then, 15 μl of the ENPP1/Compound incubation was transferred to the 200 μM 2′3′-cGAMP solution to initiate the reaction. The 30 μl mixture was incubated for 30 min at 25° C. In all these assays a DMSO control without compound was included which gave the maximum 5′-AMP production (MAX RLU). After 30 min the reaction was stopped by heating at 90° C. for 3 min.
Third, the Promega AMP-Glo kit was used to detect 5′-AMP production as a measurement of ENPP1 enzyme activity. Briefly, 10 μl of the above mentioned 30 μl total reaction per sample was transferred into 384 well white solid assay plate for measurement of 5′-AMP production. For each well, 10 μl of AMP-Glo Reagent I was added, mixed well, and incubated for 1 hour at 25° C. At this time AMP detection solution was prepared and 20 μl was added per well, and the resulting solution was incubated for 1 hr at 25° C. Duplicates were run for each inhibitor concentration. Luminescence signal (relative luminescence units, RLU) was recorded using a PerkinElmer 2300 Enspire multimode plate reader.
The % inhibition was calculated using the following equation: % inhibition=(MAX RLU-sample RLU)/MAX RLU X 100%.
IC50 values of compounds were determined by loading compound concentration data and percent inhibition values into GraphPad Prism (GraphPad Prism version 7.0 for
Windows, GraphPad Software, La Jolla California USA, www.graphpad.com) and conducted a Sigmoidal variable slope nonlinear regression fitting.
Ki values for each compound were calculated from the observed IC50 from GraphPad analysis using the Cheng-Prusoff equation: Ki=IC50/(1+ (S)/KM). (S) here is 100μ M and KM is 32 μm.

ENPP1 [2] = target: T1, ENPP1; experiment: Measurement of pNP-TMP hydrolysis by ENPP1; assay type: biochemical; settings: pNP-TMP substrate 500 μM, Km 232 μM; Ki from IC50 by Cheng-Prusoff
Procedure: Measurement of pNP-TMP hydrolysis by ENPP1
p-Nitrophenyl thymidine 5′-monophosphate (pNP-TMP) is a synthesized substrate for ENPP1. The ENPP1 enzyme activity assay with pNP-TMP substrate was conducted as follows:
First, in a 60 μl reaction, 7.5 ng purified ENPP1 was mixed with 1.2 μl compounds of Formula (I) (test compound) ranging from 13.7 nM to 10 μM. Incubation of ENPP1 with compounds was set at 25° C. for 10 min. Reactions with DMSO only (with ENPP1 but no compound) gave the fastest reaction (MAX Activity). For each compound dilution, wells with assay buffer (50 mM Tris -HCl, pH8.8, 250 mM NaCl, 0.1 mg/ml BSA) and test compounds but no ENPP1 were included as controls for the subtraction of test compound derived absorbance at 405 nm.
Second, after 10 minutes incubation of ENPP1 and test compound, the assay was initiated by transferring 50 μl of the above mentioned ENPP1/test compound reaction into 50 μl of 1 mM pNP-TMP in assay buffer results in a 100 μl total reaction in non-binding surface clear bottom 96 well plates. Absorbance at 405 nm was recorded immediately in kinetic mode by PerkinElmer 2300 Enspire multimode plate reader.
For each inhibitor, the specific ENPP1 activity was calculated using the following equation: ENPP1 activity (pmol/min/μg)=Adjusted Vmax (OD405 nm/min) X conversion factor (pmol/OD405 nm)/amount of enzyme (μg)
Adjusted Vmax=V0X (Km+(S))/(S). In this assay, Km=232 μM, (S)=500 μM. Adjusted Vmax=1.464 X V0.
V0=(OD405 nm with ENPP1-OD405 nm ENPP1 blank)/minutes. OD405 nm was plotted, with blank subtracted, against time (minutes), the initial linear rate is V0.
The conversion factor (pmol/OD405 nm), was determined by plotting the amount of standard, 4-Nitrophenol (Sigma -Aldrich, Catalog #241326), against absorbance at 405 nm. The slope is the conversion factor. The percent ENPP1 activity for each sample was calculated using the following equation: […]
To determine the IC50 for each compound, compound concentration values and percent enzyme activity values were inserted into GraphPad Prism (GraphPad Prism version 9.0 for Windows, GraphPad Software, La Jolla California USA, www.graphpad.com), and Prism's Transform analysis was used to convert the x-axis values (compound concentration) to logarithms. A sigmoidal variable slope nonlinear regression analysis was performed using the following equation: Y=Bottom+ (Top-Bottom)/(1+10^((Log IC50″X) *HillSlope)).
Ki values for each compound were calculated from the observed IC50 from GraphPad analysis using the Cheng-Prusoff equation: Ki=IC50/(1+(S)/KM). (S) here is 500 μM and KM is determined to be 232 μM.

HGS tumor model = experiment: Anti-tumor activity in HGS tumor model; assay type: in vivo; settings: animals treated with 20/kg of compound, day 42 after inoculation
From the text: […]

## COc1nccc2c(N3CCC(O)(CS(C)(=N)=O)CC3)ccnc12 (stereo not shown) [Example 25]
ENPP1 [1]
  Ki: < 1 nM

## CS(=N)(=O)c1cccc(COc2ccnc3cnccc23)c1 (stereo not shown) [Example 9]
ENPP1 [2]
  Ki: < 10 nM
ENPP1 [1]
  Ki: 1 to 5 nM

## CS(=N)(=O)CC1(O)CCN(c2ccnc3c(OCF)nccc23)CC1 (racemic) [Example 47, ((1-(8-(fluoromethoxy)-1,7-naphthyridin-4-yl)-4-hydroxypiperidin-4-yl)methyl) (imino)(methyl)-lambda6-sulfanone]
ENPP1 [1]
  Ki: < 1 nM

## N=S(=O)(c1cc(F)cc(COc2ccnc3c(OCF)nccc23)c1)C1CC1 (stereo not shown) [Example 69, cyclopropyl(3-fluoro-5-(((8-(fluoromethoxy)-1,7-naphthyridin-4-yl)oxy)-methyl)phenyl) (imino)-lambda6-sulfanone]
ENPP1 [2]
  Ki: < 10 nM
ENPP1 [1]
  Ki: < 1 nM

## N=S(=O)(c1cccc(COc2ccnc3c(OCF)nccc23)c1)C1CC1 (racemic) [Example 41, cyclopropyl(3-(((8-(fluoromethoxy)-1,7-naphthyridin-4-yl)oxy)methyl)phenyl)-(imino)-lambda6-sulfanone]
ENPP1 [2]
  Ki: < 10 nM
ENPP1 [1]
  Ki: < 1 nM

## COc1nccc2c(OCc3cc(F)cc([S@@](C)(=N)=O)c3)ccnc12 (single isomer, unassigned) [Example 71]
ENPP1 [2]
  Ki: < 10 nM
ENPP1 [1]
  Ki: < 1 nM

## CS(=N)(=O)c1cccc(COc2ccnc3c(OCF)nccc23)c1 (racemic) [Example 77, (3-(((8-(fluoromethoxy)-1,7-naphthyridin-4-yl)oxy)methyl)phenyl) (imino)(methyl)-lambda6-sulfanone]
ENPP1 [2]
  Ki: < 10 nM
ENPP1 [1]
  Ki: < 1 nM

## CS(=N)(=O)c1cc(F)cc(COc2ccnc3c(OCF)nccc23)c1 (stereo not shown) [Example 72, (3-fluoro-5-(((8-(fluoromethoxy)-1,7-naphthyridin-4-yl)oxy)methyl)phenyl)-(imino)(methyl)-lambda6-sulfanone]
ENPP1 [1]
  Ki: < 1 nM

## COc1nccc2c(OCc3cccc([S@@](=N)(=O)C4CC4)c3)ccnc12 [Example 17b, (S)-Cyclopropyl(imino)(3-(((8-methoxy-1,7-naphthyridin-4-yl)oxy)methyl)phenyl)-lamba6-sulfanone]
ENPP1 [2]
  Ki: < 10 nM
ENPP1 [1]
  Ki: < 1 nM

## C=CC(=O)N1CCN(CCCn2c(=O)c(-c3c(Cl)c(OC)cc(OC)c3Cl)cc3cnc(NC)nc32)CC1 [8-(3-(4-acryloylpiperazin-1-yl)propyl)-6-(2,6-dichloro-3,5-dimethoxyphenyl)-2-(methylamino)pyrido (2,3-d)pyrimidin-7 (8H)-one]
HGS tumor model
  tumor size: 55 mm3

## COc1nccc2c(OCc3cc(F)cc([S@@](=N)(=O)C4CC4)c3)ccnc12 (single isomer, unassigned) [Example 67]
ENPP1 [2]
  Ki: < 10 nM
ENPP1 [1]
  Ki: < 1 nM

## N=[S@@](=O)(c1cccc(COc2ccnc3c(OCF)nccc23)c1)C1CC1 (single isomer, unassigned) [Example 43]
ENPP1 [2]
  Ki: < 10 nM
ENPP1 [1]
  Ki: < 1 nM

## CN=S(C)(=O)N1CCC2(CCN(c3ccnc4c(OC)nccc34)C2)C1 (stereo not shown) [Example 54, ((7-(8-methoxy-1,7-naphthyridin-4-yl)-2,7-diazaspiro(4.4)nonan-2-yl)(methyl)oxo-lambda6-sulfanylidene)(methyl)amine]
ENPP1 [2]
  Ki: 100 to 10000 nM

## COc1nccc2c(N3CC4(CC(CS(C)(=N)=O)C4)C3)ncnc12 (single isomer, unassigned) [Example 2a, imino ((2-(8-methoxypyrido[3,4-d]pyrimidin-4-yl)-2-azaspiro[3.3]heptan-6-yl)methyl)(methyl)-lambda6-sulfanone]
ENPP1 [2]
  Ki: < 10 nM
ENPP1 [1]
  Ki: < 1 nM

## COc1nccc2c(OCc3cccc([S@@](=N)(=O)C(C)(C)C)c3)ccnc12 [Example 74, (S)-tert-butyl(imino) (3-(((8-methoxy-1,7-naphthyridin-4-yl)oxy)methyl)phenyl)-lambda6-sulfanone]
ENPP1 [2]
  Ki: < 10 nM

## C[S@](=N)(=O)CC1(O)CCN(c2ccnc3c(OCF)nccc23)CC1 (single isomer, unassigned) [Example 49]
ENPP1 [2]
  Ki: < 10 nM
ENPP1 [1]
  Ki: < 1 nM

## C[S@](=N)(=O)c1cccc(COc2ccnc3c(OCF)nccc23)c1 (single isomer, unassigned) [Example 79]
ENPP1 [2]
  Ki: < 10 nM
ENPP1 [1]
  Ki: < 1 nM

## COc1nccc2c(OCc3cc(F)cc(S(=N)(=O)C4CC4)c3)ccnc12 (racemic) [Example 66, cyclopropyl(3-fluoro-5-(((8-methoxy-1,7-naphthyridin-4-yl)oxy)methyl)-phenyl) (imino)-lambda6-sulfanone]
ENPP1 [1]
  Ki: < 1 nM

## COc1nccc2c(N3CC4(CCN(S(C)(=N)=O)C4)C3)ccnc12 (stereo not shown) [Example 45, 8-methoxy-4-(6-(S-methylsulfonimidoyl)-2,6-diazaspiro(3.4)octan-2-yl)-1,7-naphthyridine]
ENPP1 [2]
  Ki: < 10 nM

## C[S@@](=N)(=O)c1cccc(COc2ccnc3c(OCF)nccc23)c1 (single isomer, unassigned) [Example 78]
ENPP1 [2]
  Ki: 10 to 100 nM
